Test results: PubChem BioAssay (NCI)
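A five-concentration, 48-hour dose response in 96-well plates underlies each endpoint, interpolated linearly between surrounding concentrations. GI50: concentration for 50% inhibition of growth. TGI: total growth inhibition.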

Assays:
Assay in all cases: inhibition of tumour cell growth, NCI panel, 48 h
RPMI-8226 leukemia = test system: RPMI-8226 leukemia
TK-10 renal = test system: TK-10 renal
A549 NSCLC = test system: A549 NSCLC
MALME-3M melanoma = test system: MALME-3M melanoma
ACHN renal = test system: ACHN renal
SW-620 colon = test system: SW-620 colon
OVCAR-8 ovarian = test system: OVCAR-8 ovarian
MDA-MB-468 breast = test system: MDA-MB-468 breast
HL-60(TB) leukemia = test system: HL-60(TB) leukemia
OVCAR-5 ovarian = test system: OVCAR-5 ovarian
MDA-MB-231 breast = test system: MDA-MB-231 breast
OVCAR-4 ovarian = test system: OVCAR-4 ovarian
786-0 renal = test system: 786-0 renal
PC-3 prostate = test system: PC-3 prostate
UACC-62 melanoma = test system: UACC-62 melanoma
SF-539 CNS = test system: SF-539 CNS
SK-MEL-28 melanoma = test system: SK-MEL-28 melanoma
NCI-H522 lung = test system: NCI-H522 lung
HT29 colon = test system: HT29 colon
SK-OV-3 ovarian = test system: SK-OV-3 ovarian
MOLT-4 leukemia = test system: MOLT-4 leukemia
OVCAR-3 ovarian = test system: OVCAR-3 ovarian
SK-MEL-2 melanoma = test system: SK-MEL-2 melanoma
U251 CNS = test system: U251 CNS
SK-MEL-5 melanoma = test system: SK-MEL-5 melanoma
UO-31 renal = test system: UO-31 renal
NCI-H23 lung = test system: NCI-H23 lung
SF-268 CNS = test system: SF-268 CNS
UACC-257 melanoma = test system: UACC-257 melanoma
COLO 205 colon = test system: COLO 205 colon
SF-295 CNS = test system: SF-295 CNS
NCI-H226 lung = test system: NCI-H226 lung
SNB-19 CNS = test system: SNB-19 CNS
SR leukemia = test system: SR leukemia
SN12C renal = test system: SN12C renal
EKVX NSCLC = test system: EKVX NSCLC
HOP-62 NSCLC = test system: HOP-62 NSCLC
LOX IMVI melanoma = test system: LOX IMVI melanoma
HOP-92 NSCLC = test system: HOP-92 NSCLC
HS 578T breast = test system: HS 578T breast
MDA-MB-435 = test system: MDA-MB-435
SNB-75 CNS = test system: SNB-75 CNS
IGROV1 ovarian = test system: IGROV1 ovarian
BT-549 breast = test system: BT-549 breast
KM12 colon = test system: KM12 colon
HCT-15 colon = test system: HCT-15 colon
HCC-2998 colon = test system: HCC-2998 colon
K-562 leukemia = test system: K-562 leukemia
A498 renal = test system: A498 renal
RXF 393 renal = test system: RXF 393 renal
NCI/ADR-RES ovarian = test system: NCI/ADR-RES ovarian
T-47D breast = test system: T-47D breast
NCI-H460 lung = test system: NCI-H460 lung
CAKI-1 renal = test system: CAKI-1 renal
M14 melanoma = test system: M14 melanoma
CCRF-CEM leukemia = test system: CCRF-CEM leukemia
MCF7 breast = test system: MCF7 breast
DU-145 prostate = test system: DU-145 prostate

CN1CCN(c2ccc(C(=O)/C=C/c3cc(C(F)(F)F)ccc3Cl)cc2)CC1 was tested, and the GI50 (RPMI-8226 leukemia) was 1.77 µM, the TGI (RPMI-8226 leukemia) was 4.68 µM and the GI50 (TK-10 renal) was 13.5 µM. The TGI (TK-10 renal) was 29 µM, the GI50 (A549 NSCLC) was 3.65 µM and the TGI (A549 NSCLC) was 14.8 µM. The GI50 (MALME-3M melanoma) was 11.2 µM, the TGI (MALME-3M melanoma) was 23.4 µM and the GI50 (ACHN renal) was 4.92 µM. The TGI (ACHN renal) was 16.8 µM, the GI50 (SW-620 colon) was 2.08 µM and the TGI (SW-620 colon) was 4.02 µM. The GI50 (OVCAR-8 ovarian) was 9.04 µM, the TGI (OVCAR-8 ovarian) was 26.2 µM and the GI50 (MDA-MB-468 breast) was 1.59 µM. The TGI (MDA-MB-468 breast) was 3.48 µM, the GI50 (HL-60(TB) leukemia) was 2.14 µM and the TGI (HL-60(TB) leukemia) was 7.53 µM. It also gave a GI50 (OVCAR-5 ovarian) of 13.9 µM, a TGI (OVCAR-5 ovarian) of 26.9 µM and a GI50 (MDA-MB-231 breast) of 2.81 µM. It also gave a TGI (MDA-MB-231 breast) of 8.01 µM, a GI50 (OVCAR-4 ovarian) of 10.7 µM and a TGI (OVCAR-4 ovarian) of 29 µM. The GI50 (786-0 renal) was 2.22 µM, the TGI (786-0 renal) was 5.74 µM and the GI50 (PC-3 prostate) was 3.06 µM. It also gave a TGI (PC-3 prostate) of 13.2 µM, a GI50 (UACC-62 melanoma) of 10.9 µM and a TGI (UACC-62 melanoma) of 22.8 µM. For the same compound, the GI50 (SF-539 CNS) was 1.92 µM, the TGI (SF-539 CNS) was 4.38 µM and the GI50 (SK-MEL-28 melanoma) was 10.5 µM. For the same compound, the TGI (SK-MEL-28 melanoma) was 22.3 µM, the GI50 (NCI-H522 lung) was 12.3 µM and the TGI (NCI-H522 lung) was 27.9 µM. It also gave a GI50 (HT29 colon) of 2.01 µM, a TGI (HT29 colon) of 5.02 µM and a GI50 (SK-OV-3 ovarian) of 5.66 µM. For the same compound, the TGI (SK-OV-3 ovarian) was 18.8 µM, the GI50 (MOLT-4 leukemia) was 4.94 µM and the TGI (MOLT-4 leukemia) was 93.6 µM. The GI50 (OVCAR-3 ovarian) was 4.08 µM, the TGI (OVCAR-3 ovarian) was 14.4 µM and the GI50 (SK-MEL-2 melanoma) was 17 µM. It also gave a TGI (SK-MEL-2 melanoma) of 32 µM, a GI50 (U251 CNS) of 2.1 µM and a TGI (U251 CNS) of 4.85 µM. The GI50 (SK-MEL-5 melanoma) was 3.71 µM, the TGI (SK-MEL-5 melanoma) was 15 µM and the GI50 (UO-31 renal) was 4.09 µM. The TGI (UO-31 renal) was 16.4 µM, the GI50 (NCI-H23 lung) was 3.89 µM and the TGI (NCI-H23 lung) was 14.2 µM. The GI50 (SF-268 CNS) was 14.1 µM, the TGI (SF-268 CNS) was 37.7 µM and the GI50 (UACC-257 melanoma) was 10.4 µM. It also gave a TGI (UACC-257 melanoma) of 23.7 µM, a GI50 (COLO 205 colon) of 3.48 µM and a TGI (COLO 205 colon) of 10.7 µM. It also gave a GI50 (SF-295 CNS) of 6.89 µM, a TGI (SF-295 CNS) of 19.8 µM and a GI50 (NCI-H226 lung) of 4.55 µM. For the same compound, the TGI (NCI-H226 lung) was 18.6 µM, the GI50 (SNB-19 CNS) was 8.95 µM and the TGI (SNB-19 CNS) was 21 µM. It also gave a GI50 (SR leukemia) greater than 100 µM, a TGI (SR leukemia) greater than 100 µM and a GI50 (SN12C renal) of 4.32 µM. For the same compound, the TGI (SN12C renal) was 16.4 µM, the GI50 (EKVX NSCLC) was 5.94 µM and the TGI (EKVX NSCLC) was 19 µM. The GI50 (HOP-62 NSCLC) was 13.9 µM, the TGI (HOP-62 NSCLC) was 29.7 µM and the GI50 (LOX IMVI melanoma) was 1.63 µM. For the same compound, the TGI (LOX IMVI melanoma) was 2.99 µM, the GI50 (HOP-92 NSCLC) was 3.79 µM and the TGI (HOP-92 NSCLC) was 18.1 µM. For the same compound, the GI50 (HS 578T breast) was 5.48 µM, the TGI (HS 578T breast) was 28.7 µM and the GI50 (MDA-MB-435) was 2.14 µM. For the same compound, the TGI (MDA-MB-435) was 5.06 µM, the GI50 (SNB-75 CNS) was 2.66 µM and the TGI (SNB-75 CNS) was 15.6 µM. The GI50 (IGROV1 ovarian) was 3.33 µM, the TGI (IGROV1 ovarian) was 13 µM and the GI50 (BT-549 breast) was 5.42 µM. It also gave a TGI (BT-549 breast) of 20.4 µM, a GI50 (KM12 colon) of 3.1 µM and a TGI (KM12 colon) of 9.83 µM. It also gave a GI50 (HCT-15 colon) of 1.87 µM, a TGI (HCT-15 colon) of 3.78 µM and a GI50 (HCC-2998 colon) of 1.81 µM. For the same compound, the TGI (HCC-2998 colon) was 3.2 µM, the GI50 (K-562 leukemia) was 2.17 µM and the TGI (K-562 leukemia) was greater than 100 µM. It also gave a GI50 (A498 renal) of 17.4 µM, a TGI (A498 renal) of 32 µM and a GI50 (RXF 393 renal) of 2.16 µM. It also gave a TGI (RXF 393 renal) of 11.1 µM, a GI50 (NCI/ADR-RES ovarian) of 3.5 µM and a TGI (NCI/ADR-RES ovarian) of 12.8 µM. The GI50 (T-47D breast) was 12.3 µM, the TGI (T-47D breast) was 39.8 µM and the GI50 (NCI-H460 lung) was 8.73 µM. It also gave a TGI (NCI-H460 lung) of 22.3 µM, a GI50 (CAKI-1 renal) of 8.23 µM and a TGI (CAKI-1 renal) of 21.2 µM. The GI50 (M14 melanoma) was 3.13 µM, the TGI (M14 melanoma) was 10.9 µM and the GI50 (CCRF-CEM leukemia) was 2.17 µM. For the same compound, the TGI (CCRF-CEM leukemia) was 5.93 µM, the GI50 (MCF7 breast) was 1.42 µM and the TGI (MCF7 breast) was 2.94 µM. It also gave a GI50 (DU-145 prostate) of 5.5 µM and a TGI (DU-145 prostate) of 20.5 µM.
